Test results taken from ChEMBL document CHEMBL1201862, “PubChem BioAssay data set” (2004).
Each block holds one compound with its values, some of them ahead of it. Activity calls are given as the source filed them.

Assays:
[1] = biological target: Peroxisome proliferator-activated receptor gamma/Nuclear receptor coactivator 2 (Homo sapiens, UniProt P37231); test: (§1) TR-FRET dose response biochemical High Throughput Screening assay for agonists of the steroid receptor coactivator 2 (SRC-2) recruitment by the peroxisome proliferator-activated receptor gamma (PPAR gamma): non-selective agonists. [Related pubchem assays: 1297, 1032 ]; type: functional
[2] = biological target: Peroxisome proliferator-activated receptor gamma/Nuclear receptor coactivator 3 (Homo sapiens, UniProt P37231); test: as §1, with “3 (SRC-3)” for “2 (SRC-2)”, “1301 (Confirmation screen.), 1048 (Primary screen.)]” for “1297, 1032 ]”; type: functional
[3] = biological target: Peroxisome proliferator-activated receptor gamma/Nuclear receptor coactivator 1 (Homo sapiens, UniProt P37231); test: as §1, with “1 (SRC-1)” for “2 (SRC-2)”, “assays (depositor defined):AID1300, AID1808, AID504735, AID631]” for “assays: 1297, 1032 ]”; type: protein assay
X-box-binding protein 1 = X-box-binding protein 1 (Homo sapiens, UniProt P17861); type: functional, Cricetulus griseus;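 also: confirmatory dose-response counter-screen serving a CHOP assay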
[4] = NIH-3T3 fibroblast cytotoxicity, dose response, cytotoxicity control, cell-based, fluorescence, Alamar Blue, secondary assay (AID 2327); type: functional;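 also: NIH-3T3 mouse fibroblasts cultured with fluconazole at 8 µg/mL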
[5] = biological target: DNA damage-inducible transcript 3 protein (Mus musculus, UniProt P35639); type: functional, Cricetulus griseus
[6] = C. albicans growth with fluconazole, confirmation, fluorescence, retest (AID 2467); type: functional, cell-based
[7] = biological target: G-protein coupled receptor 55 (Homo sapiens, UniProt Q9Y2T6); test: GPR55 antagonists blocking LPI-driven arrestin recruitment, primary screen, imaging, U2OS, beta-arrestin-GFP, LPI agonist (AID 2013); type: functional;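 also: antagonist potency measured as reduced agonist-driven arrestin aggregation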
Exodeoxyribonuclease V = Exodeoxyribonuclease V (Escherichia coli (strain K12), UniProt P04993+P07648+P08394); test: E. coli RecBCD inhibitors, dose response, counter-screen for AddAB inhibitor project, absorbance, V66 E. coli, mutant T4 phage (AID 492957); type: functional, cell-based, Escherichia coli str. K-12 substr. MG1655
[8] = Counterscreen for AddAB inhibitors: absorbance-based bacterial cell-based high throughput dose response assay for inhibitors of bacterial viability. [Related pubchem assays (depositor defined):AID435030, AID449728, AID449731, AID488942, AID488955, AID488956]; type: functional
Perilipin-1/ABHD5 = Perilipin-1/ABHD5 (Homo sapiens, UniProt O60240+Q8WTS1); test: Luminescence-based biochemical high throughput dose response assay for inhibitors of the interaction of the lipase co-activator protein, abhydrolase domain containing 5 (ABHD5) with perilipin-1 (PLIN1) (2K validation set). [Related pubchem assays (depositor defined):AID493027, AID493057]
[9] = biological target: 1-acylglycerol-3-phosphate O-acyltransferase ABHD5/Perilipin-5 (Homo sapiens, UniProt Q00G26+Q8WTS1); test: Luminescence-based biochemical high throughput dose response assay for inhibitors of the interaction of the lipase co-activator protein, abhydrolase domain containing 5 (ABHD5) with perilipin-5 (MLDP; PLIN5) (2K validation set). [Related pubchem assays (depositor defined):AID493035, AID493241]
HEK293 [10] = test: cells; type: functional, cell-based; conditions: Homo sapiens
HEK293 [11] = test: cells; type: functional, cell-based; conditions: Homo sapiens; remark: listed apart in the source
HEK293 [12] = test: NOD1 signaling inhibitors, primary screen, cell-based, luminescence, uHTS (AID 1578); type: functional; conditions: Homo sapiens
HEK293 [13] = test: cells; type: functional, cell-based; conditions: Homo sapiens; remark: listed apart in the source
[14] = biological target: Nucleotide-binding oligomerization domain-containing protein 2 (Homo sapiens, UniProt Q9HC29); test: NOD2 signaling inhibitors, cell-based, luminescence, uHTS, HEK293 (AID 1566); type: functional
HEK293 [15] = test: NOD2 signaling inhibitors in MDP-stimulated cells, cell-based, uHTS, luminescence (AID 2001); type: functional; conditions: Homo sapiens
Coagulation factor XII = biological target: T1, Coagulation factor XII (Homo sapiens, UniProt P00748); test: FXIIa inhibitor potency, concentration-response, biochemical (AID 716); type: functional
T1 sequence (P00748 whole entry): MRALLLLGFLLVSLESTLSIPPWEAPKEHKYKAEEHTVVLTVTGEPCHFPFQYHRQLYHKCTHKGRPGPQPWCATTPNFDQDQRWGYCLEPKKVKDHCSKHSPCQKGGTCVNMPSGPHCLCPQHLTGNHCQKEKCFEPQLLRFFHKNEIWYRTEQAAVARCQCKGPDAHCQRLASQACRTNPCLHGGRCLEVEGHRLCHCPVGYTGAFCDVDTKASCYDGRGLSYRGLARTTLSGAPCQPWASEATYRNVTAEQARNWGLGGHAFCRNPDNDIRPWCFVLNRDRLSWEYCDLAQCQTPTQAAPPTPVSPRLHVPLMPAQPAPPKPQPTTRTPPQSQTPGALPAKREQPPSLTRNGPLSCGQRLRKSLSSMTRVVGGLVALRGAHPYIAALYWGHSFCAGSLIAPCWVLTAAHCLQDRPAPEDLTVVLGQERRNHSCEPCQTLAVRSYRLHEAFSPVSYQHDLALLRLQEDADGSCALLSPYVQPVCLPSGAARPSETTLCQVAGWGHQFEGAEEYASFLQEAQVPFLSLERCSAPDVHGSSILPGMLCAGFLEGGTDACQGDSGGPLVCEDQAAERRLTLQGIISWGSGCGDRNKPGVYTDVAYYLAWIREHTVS

[16] = biological target: T2, Voltage-gated N-type calcium channel alpha-1B subunit/Amyloid beta A4 precursor protein-binding family A member 1 (Homo sapiens, UniProt Q00975+Q02410); type: protein assay
[17] = biological target: T2, Voltage-gated N-type calcium channel alpha-1B subunit/Amyloid beta A4 precursor protein-binding family A member 1; type: protein assay; remark: listed apart in the source

T2 sequence (Q00975 whole entry): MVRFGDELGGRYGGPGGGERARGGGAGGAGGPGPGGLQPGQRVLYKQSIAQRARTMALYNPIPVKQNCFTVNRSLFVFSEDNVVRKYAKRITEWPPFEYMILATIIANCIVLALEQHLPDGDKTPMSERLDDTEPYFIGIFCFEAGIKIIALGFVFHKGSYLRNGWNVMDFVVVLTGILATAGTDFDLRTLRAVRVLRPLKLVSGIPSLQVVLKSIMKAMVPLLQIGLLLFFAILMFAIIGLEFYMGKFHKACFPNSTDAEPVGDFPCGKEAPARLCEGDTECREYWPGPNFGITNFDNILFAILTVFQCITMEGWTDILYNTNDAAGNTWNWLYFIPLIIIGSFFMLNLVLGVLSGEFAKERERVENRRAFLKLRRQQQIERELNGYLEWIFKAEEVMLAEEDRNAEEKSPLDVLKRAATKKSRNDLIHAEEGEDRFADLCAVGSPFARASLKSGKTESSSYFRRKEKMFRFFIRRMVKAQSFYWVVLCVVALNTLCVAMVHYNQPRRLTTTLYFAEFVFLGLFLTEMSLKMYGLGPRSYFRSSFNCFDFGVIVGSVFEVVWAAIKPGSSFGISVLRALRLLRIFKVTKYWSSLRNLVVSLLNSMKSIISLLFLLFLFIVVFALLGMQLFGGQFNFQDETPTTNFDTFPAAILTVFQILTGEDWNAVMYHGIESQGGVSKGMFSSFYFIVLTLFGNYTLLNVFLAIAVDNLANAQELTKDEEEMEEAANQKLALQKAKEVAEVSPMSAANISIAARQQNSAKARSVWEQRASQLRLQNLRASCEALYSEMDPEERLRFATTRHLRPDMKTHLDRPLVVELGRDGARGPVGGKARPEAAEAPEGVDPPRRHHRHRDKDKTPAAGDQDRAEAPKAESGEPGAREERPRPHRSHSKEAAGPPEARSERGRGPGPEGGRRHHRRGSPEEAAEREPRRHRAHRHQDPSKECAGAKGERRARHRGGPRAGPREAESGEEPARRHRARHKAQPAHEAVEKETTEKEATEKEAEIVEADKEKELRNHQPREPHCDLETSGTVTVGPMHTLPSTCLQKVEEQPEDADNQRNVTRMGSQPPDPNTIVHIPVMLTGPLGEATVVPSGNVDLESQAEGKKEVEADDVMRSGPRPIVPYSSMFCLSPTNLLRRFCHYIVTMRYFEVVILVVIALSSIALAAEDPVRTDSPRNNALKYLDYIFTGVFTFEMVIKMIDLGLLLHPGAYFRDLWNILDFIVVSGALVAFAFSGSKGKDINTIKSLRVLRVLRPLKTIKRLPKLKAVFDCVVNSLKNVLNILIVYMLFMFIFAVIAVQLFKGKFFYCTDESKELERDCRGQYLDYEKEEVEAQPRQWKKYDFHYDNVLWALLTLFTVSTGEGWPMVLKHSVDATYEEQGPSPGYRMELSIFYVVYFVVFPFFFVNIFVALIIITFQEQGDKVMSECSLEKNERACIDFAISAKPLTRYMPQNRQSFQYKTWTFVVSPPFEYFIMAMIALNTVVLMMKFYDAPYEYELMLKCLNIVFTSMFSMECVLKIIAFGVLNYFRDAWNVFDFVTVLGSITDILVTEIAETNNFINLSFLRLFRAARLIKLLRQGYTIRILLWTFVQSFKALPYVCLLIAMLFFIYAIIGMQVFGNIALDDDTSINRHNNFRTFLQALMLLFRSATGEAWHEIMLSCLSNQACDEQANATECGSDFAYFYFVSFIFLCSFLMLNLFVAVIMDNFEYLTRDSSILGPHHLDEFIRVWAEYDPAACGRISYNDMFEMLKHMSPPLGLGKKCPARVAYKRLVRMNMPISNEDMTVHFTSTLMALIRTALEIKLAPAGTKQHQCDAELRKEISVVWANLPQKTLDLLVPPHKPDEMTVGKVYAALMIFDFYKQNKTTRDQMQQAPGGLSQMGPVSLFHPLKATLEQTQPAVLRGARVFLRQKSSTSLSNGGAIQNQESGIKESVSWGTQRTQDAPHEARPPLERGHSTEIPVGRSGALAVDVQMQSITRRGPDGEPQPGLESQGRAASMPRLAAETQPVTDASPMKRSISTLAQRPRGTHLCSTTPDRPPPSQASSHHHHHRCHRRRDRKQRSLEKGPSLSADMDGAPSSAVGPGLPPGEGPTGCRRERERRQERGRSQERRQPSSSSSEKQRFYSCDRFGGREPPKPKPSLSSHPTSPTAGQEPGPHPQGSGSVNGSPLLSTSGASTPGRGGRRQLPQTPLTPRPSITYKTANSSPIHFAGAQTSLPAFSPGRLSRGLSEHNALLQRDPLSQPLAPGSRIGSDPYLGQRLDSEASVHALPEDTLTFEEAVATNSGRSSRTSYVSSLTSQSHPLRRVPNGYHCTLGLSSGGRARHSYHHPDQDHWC
T2 sequence (Q02410 whole entry): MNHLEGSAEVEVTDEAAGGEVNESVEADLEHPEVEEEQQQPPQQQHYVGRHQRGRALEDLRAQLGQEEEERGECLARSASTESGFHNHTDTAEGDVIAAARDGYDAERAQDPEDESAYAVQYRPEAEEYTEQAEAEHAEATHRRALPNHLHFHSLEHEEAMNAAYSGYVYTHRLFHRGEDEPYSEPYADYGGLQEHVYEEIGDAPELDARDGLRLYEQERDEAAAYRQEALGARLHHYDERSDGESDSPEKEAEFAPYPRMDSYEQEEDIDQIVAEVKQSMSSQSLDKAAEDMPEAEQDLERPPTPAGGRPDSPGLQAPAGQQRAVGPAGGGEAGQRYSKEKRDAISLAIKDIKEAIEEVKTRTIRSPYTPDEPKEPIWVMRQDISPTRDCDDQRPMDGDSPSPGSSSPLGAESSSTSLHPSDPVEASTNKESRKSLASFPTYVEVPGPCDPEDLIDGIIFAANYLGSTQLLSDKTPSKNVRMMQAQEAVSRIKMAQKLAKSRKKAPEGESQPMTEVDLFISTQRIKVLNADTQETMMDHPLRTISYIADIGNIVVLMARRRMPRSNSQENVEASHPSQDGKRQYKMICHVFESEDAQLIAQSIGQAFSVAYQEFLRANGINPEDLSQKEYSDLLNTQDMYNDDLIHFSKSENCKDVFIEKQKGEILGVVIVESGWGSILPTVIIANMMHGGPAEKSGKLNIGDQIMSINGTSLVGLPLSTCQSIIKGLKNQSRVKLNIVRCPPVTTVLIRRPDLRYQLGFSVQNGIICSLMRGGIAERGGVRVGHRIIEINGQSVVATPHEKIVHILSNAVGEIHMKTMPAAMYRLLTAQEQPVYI
Chain of 1-acylglycerol-3-phosphate O-acyltransferase ABHD5/Perilipin-5 (Q00G26 whole entry, the tested form may be a part): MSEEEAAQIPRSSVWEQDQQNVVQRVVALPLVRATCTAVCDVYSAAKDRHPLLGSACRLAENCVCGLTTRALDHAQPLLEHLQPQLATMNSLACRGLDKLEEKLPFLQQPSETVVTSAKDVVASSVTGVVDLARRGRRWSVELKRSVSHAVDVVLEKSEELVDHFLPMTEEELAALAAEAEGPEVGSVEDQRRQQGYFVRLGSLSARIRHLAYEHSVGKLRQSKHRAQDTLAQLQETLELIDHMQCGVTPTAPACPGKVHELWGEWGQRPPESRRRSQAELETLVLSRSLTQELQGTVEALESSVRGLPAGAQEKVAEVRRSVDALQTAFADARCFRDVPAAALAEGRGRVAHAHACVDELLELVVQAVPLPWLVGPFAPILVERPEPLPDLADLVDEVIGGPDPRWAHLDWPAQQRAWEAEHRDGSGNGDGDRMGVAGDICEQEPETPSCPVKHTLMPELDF
Chain of 1-acylglycerol-3-phosphate O-acyltransferase ABHD5/Perilipin-5 (Q8WTS1 whole entry, the tested form may be a part): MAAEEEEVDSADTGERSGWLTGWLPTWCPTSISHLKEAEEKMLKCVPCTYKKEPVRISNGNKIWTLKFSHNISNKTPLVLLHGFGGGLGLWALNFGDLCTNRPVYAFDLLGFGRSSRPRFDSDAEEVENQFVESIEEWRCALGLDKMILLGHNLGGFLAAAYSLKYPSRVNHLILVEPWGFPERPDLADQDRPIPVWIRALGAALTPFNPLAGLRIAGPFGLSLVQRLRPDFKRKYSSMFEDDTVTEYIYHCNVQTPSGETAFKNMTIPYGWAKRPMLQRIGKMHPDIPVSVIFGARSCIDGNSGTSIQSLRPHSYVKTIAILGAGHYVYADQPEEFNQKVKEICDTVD
Chain of Perilipin-1/ABHD5 (Q8WTS1 whole entry, the tested form may be a part): as above
Chain of Perilipin-1/ABHD5 (O60240 whole entry, the tested form may be a part): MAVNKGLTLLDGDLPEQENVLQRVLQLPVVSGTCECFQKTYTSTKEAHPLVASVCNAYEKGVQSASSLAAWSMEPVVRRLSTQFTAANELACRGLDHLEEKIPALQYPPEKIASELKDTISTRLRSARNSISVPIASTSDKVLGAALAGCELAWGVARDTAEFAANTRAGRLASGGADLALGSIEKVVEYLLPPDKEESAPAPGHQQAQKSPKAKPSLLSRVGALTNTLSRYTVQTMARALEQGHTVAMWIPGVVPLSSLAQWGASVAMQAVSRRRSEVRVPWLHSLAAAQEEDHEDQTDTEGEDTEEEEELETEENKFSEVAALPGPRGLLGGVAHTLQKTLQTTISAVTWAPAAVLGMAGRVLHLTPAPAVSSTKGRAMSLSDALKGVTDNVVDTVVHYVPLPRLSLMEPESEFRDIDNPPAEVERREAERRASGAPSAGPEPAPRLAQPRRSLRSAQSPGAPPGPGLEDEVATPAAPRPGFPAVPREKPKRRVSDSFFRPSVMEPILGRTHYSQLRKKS
Chain of DNA damage-inducible transcript 3 protein (P35639 whole entry): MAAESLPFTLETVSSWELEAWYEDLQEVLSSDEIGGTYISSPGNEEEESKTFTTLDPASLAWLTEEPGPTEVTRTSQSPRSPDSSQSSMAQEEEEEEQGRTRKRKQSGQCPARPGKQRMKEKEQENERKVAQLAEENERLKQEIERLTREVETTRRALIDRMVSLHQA
Chain of G-protein coupled receptor 55 (Q9Y2T6 whole entry): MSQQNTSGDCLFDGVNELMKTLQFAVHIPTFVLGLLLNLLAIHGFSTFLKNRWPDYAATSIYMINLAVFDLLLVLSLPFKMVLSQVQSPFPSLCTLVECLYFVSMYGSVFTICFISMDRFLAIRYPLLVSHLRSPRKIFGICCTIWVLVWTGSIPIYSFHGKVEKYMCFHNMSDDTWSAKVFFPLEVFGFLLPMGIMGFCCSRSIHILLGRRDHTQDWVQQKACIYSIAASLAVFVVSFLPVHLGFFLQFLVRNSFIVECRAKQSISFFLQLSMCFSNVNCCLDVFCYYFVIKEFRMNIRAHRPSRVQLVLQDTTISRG

IC50 (Perilipin-1/ABHD5): 4.42 µM (active)
IC50 [9]: 6.24 µM (active)
Structure (SMILES): COc1ccc(C(=O)/C=C/c2cc(C(=O)O)cc3c2OCOC3)c(O)c1

IC50 (Coagulation factor XII): > 50 µM (inactive)
Structure (SMILES): COC(=O)COc1cccc(-n2cnnn2)c1

IC50 [16]: > 50 µM (inactive)
IC50 [17]: 4.65 µM (active)
Structure (SMILES): COc1ccc(/C=C/C(=O)NC(=S)Nc2ccc(S(=O)(=O)N=C(N)N)cc2)cc1OC

More lines, now with the values behind:

Structure (SMILES): Cn1c(=O)cc(SCC(=O)NCc2ccc(F)cc2)c2ccccc21
EC50 [1]: > 79.4 µM (not active)
EC50 [2]: > 79.4 µM (not active)
EC50 [3]: > 79.4 µM (inactive)

Structure (SMILES): CCCc1ccc(Oc2c[nH]nc2-c2ccc(O)cc2O)cc1
Absolute IC50 (XBP1) (X-box-binding protein 1): 10 µM
EC50 [4]: > 150 µM (inconclusive)
Absolute IC50 (CHOP) [5]: 10 µM
EC50 [6]: > 38 µM (not active)

Structure (SMILES): S=C(Nc1ccc(Oc2ccccc2)cc1)N(CCCN1CCOCC1)Cc1ccccn1
IC50 [7]: 2.71 µM (active)

Structure (SMILES): O=C(CSc1nc2ccccc2s1)Nc1ccc(N2CCOCC2)c(Cl)c1
IC50 (Exodeoxyribonuclease V): > 119 µM (inactive)
IC50 [8]: > 119 µM (inactive)

Structure (SMILES): O=C(CCC1CCCC1)NNC(=O)c1cc2ccccc2cc1O
IC50 (Exodeoxyribonuclease V): > 119 µM (inactive)
IC50 [8]: > 119 µM (inactive)

Structure (SMILES): O=C(Nc1ccc(Cl)cc1)c1cccc(N2C(=O)C3C4CCC(C4)C3C2=O)c1 (stereo not drawn)
IC50 (HEK293 [10]): 15.7 µM (active)
IC50 (HEK293 [11]): > 20 µM (inactive)
EC50 (HEK293 [12]): 12 µM (active)
IC50 (HEK293 [13]): > 20 µM (inactive)
EC50 [14]: > 20 µM (inactive)
IC50 (HEK293 [15]): 16.7 µM (inactive)
